This is an account of results in publication PMC9852841, “Expanding the toolbox of metabolically stable lipid prodrug strategies” (Frontiers in Pharmacology, 2023).

For data set [1], the system named is VSV pseudotype HIV-like viral particles. The data set is described as follows: organism not typed. The data set is classed as cell-based. As to conditions: for IC50: read-out: HIV IC50.
Data set [2] is described as follows: Metabolic stability in human liver microsomes. The settings on record: for HLM t1/2 / HLM stability (in words): human liver microsomes; for HLM t1/2 / half-life at 3 µM: 3 μM prodrug, NADPH, 0-120 min; for microsomal CLint at 3 µM / half-life at 3 µM: human, microsomes; for microsomal CLint at 3 µM: pH 7.4; for half-life at 3 µM: pH 7.4, HLM t1/2, human liver microsomes.

The subject of data set [3] is VSV pseudotype HIV-like viral particles. Details: method as in Pribut et al., 2021. The settings on record: preliminary pseudoviral assay results; ref Pribut et al., 2021; cited from earlier work.
The conditions of data set [4]: dogs, single TAF dose, cited from earlier work.
The conditions of data set [5]: dogs, single TAF dose.
The nature of data set [6]: Cytotoxicity assay (cell viability, CellTiter 96 or resazurin). As to conditions: human, HEK293T cells. (Alamar Blue is a resazurin reagent that responds to reducing activity.)
A short description of data set [7]: Solubility observations (aqueous, HSA formulations, growth media). The data set is classed as physicochemical. As to conditions: observational, relative to TXL.
Data set [8] can be described thus: in vitro. The settings on record: human, microsomes, pH 7.4.

Read-outs that look alike come from different tables or passages of the source.

On to `CCCCCCCCCCCCCCOCCCCCOP(=O)(O)CO[C@H](C)Cn1cnc2c(N)ncnc21.N` [Compound 20, Ammonium [(1R)-2-(6-aminopurin-9-yl)-1-methyl-ethoxy]methyl-(5-tetradecoxypentoxy)phosphinate], for which the IC50 in data set [1] (HEK-293T, 48 h) was determined as 52 nM. In addition, in data set [2], the “HLM t1/2” value came out at 31 min, the microsomal CLint at 3 µM was 22.5 µL/min/mg and the half-life at 3 µM amounted to 30.9 min.
`CCCCCCCCCCCCCCCCCCCCOP(=O)(O)COC(C)Cn1cnc2c(N)ncnc21` (centres unmarked) [arachidyl TFV]: the IC50 in data set [3] was 127 nM.
`CCCCCCCCCCCCCCCCCOCCOP(=O)(O)CO[C@H](C)Cn1cnc2c(N)ncnc21.N` [Compound 18, Ammonium 2-heptadecoxyethoxy-[[(1R)-2-(6-aminopurin-9-yl)-1-methyl-ethoxy]methyl]phosphinate]: in data set [1], the “boost in potency relative to analogue 20” value is recorded as 17 fold. Moreover, the IC50 in data set [1] (HEK-293T, 48 h) worked out at 3 nM. Moreover, in data set [2], the “HLM t1/2” value is 35 min, the microsomal CLint at 3 µM was found to be 19.8 µL/min/mg and the half-life at 3 µM was determined as 34.9 min.
With `CCCCCCCCCCCCCCCCCCOCCOP(=O)(O)CO[C@H](C)Cn1cnc2c(N)ncnc21.N` [Compound 21, Ammonium 2-octadecoxyethoxy-[[(1R)-2-(6-aminopurin-9-yl)-1-methyl-ethoxy]methyl]phosphinate], in data set [1] (HEK-293T, 48 h), the IC50 was found to be 3 nM. Also, in data set [2], the “HLM stability (in words)” value was “improved stability in HLM”, the “HLM t1/2” value is reported as 105 min and the microsomal CLint at 3 µM is 6.6 µL/min/mg.
Consider `CC(C)OC(=O)[C@H](C)N[P@](=O)(CO[C@H](C)Cn1cnc2c(N)ncnc21)Oc1ccccc1` [TAF, tenofovir alafenamide], for which the “fraction of dose extracted by the liver” value in data set [4] (ref Babusis et al., 2013) is 65%. In addition, the “fraction of a single dose converted to plasma TFV” value in data set [4] (ref Lee et al., 2005) is 17%. For the same compound, in data set [5], the “fraction of dose remaining available to access HIV-infected cells” value was found to be 18% and the “fraction of dose sequestered for toxic side effects” value was found to be 82%.
Consider `C[C@H](Cn1cnc2c(N)ncnc21)OCP(=O)(O)OCCOCCCCCCCCCCCCCCCCC(F)(F)F.N` [Compound 37, Ammonium 2-((17,17,17-trifluoroheptadecyl)oxy)ethyl (R)-(((1-(6-amino-9h-purin-9-yl)propan-2-yl)oxy)methyl)phosphonate], for which the IC50 in data set [1] (HEK-293T, 48 h) worked out at 12.6 nM. In data set [2], the “HLM t1/2” value is above 120 min and the microsomal CLint at 3 µM is below 5.78 µL/min/mg.
Take `C[C@H](Cn1cnc2c(N)ncnc21)OCP(=O)(O)OCCOCCCCCCCCCCCCCC#CC(F)(F)F.N` [Compound 32, Ammonium 2-((16,16,16-trifluorohexadec-14-yn-1-yl)oxy)ethyl (R)-(((1-(6-amino-9h-purin-9-yl)propan-2-yl)oxy)methyl)phosphonate]: the IC50 in data set [1] (HEK-293T, 48 h) came out at 16 nM. Besides, in data set [2], the “HLM t1/2” value was above 120 min and the microsomal CLint at 3 µM is below 5.78 µL/min/mg.
Take `COCCOCCOCCOCCOCCOCCOP(=O)(O)CO[C@H](C)Cn1cnc2c(N)ncnc21.N` [Compound 12, Ammonium 2,5,8,11,14,17-hexaoxanonadecan-19-yl (R)-(((1-(6-amino-9H-purin-9-yl)propan-2-yl)oxy)methyl)phosphonate]: the IC50 in data set [1] (HEK-293T, 48 h) was determined as 31200 nM; in data set [1], 34600 nM. In data set [6], this compound returned a CC50 at 48 h above 100 µM. In data set [7], the “aqueous solubility (in words)” value was “observationally increased aqueous solubility”.
As to `C[C@H](Cn1cnc2c(N)ncnc21)OCP(=O)(O)OCCOCCCCCCCCCCC#Cc1ccc(S(F)(F)(F)(F)F)cc1.N` [Compound 40, Ammonium [(1R)-2-(6-aminopurin-9-yl)-1-methyl-ethoxy]methyl-[2-[12-[4-(pentafluorosulfanyl)phenyl]dodec-11-ynoxy]ethoxy]phosphinate], the IC50 in data set [1] (HEK-293T, 48 h) amounted to 14.6 nM. Also, in data set [2], the “HLM t1/2” value is above 120 min and the microsomal CLint at 3 µM is below 5.78 µL/min/mg.
Take `CCCCOCCCCCOCCCCCOCCCOP(=O)(O)CO[C@H](C)Cn1cnc2c(N)ncnc21.N` [Compound 10, Ammonium [(1R)-2-(6-aminopurin-9-yl)-1-methyl-ethoxy]methyl-[3-[5-(5-butoxypentoxy)pentoxy]propoxy]phosphinate]: in data set [1], the “antiviral activity (in words)” value is given as “completely abrogated antiviral activity” and the “loss of antiviral activity” value was > 1,800 fold. In data set [1] (HEK-293T, 48 h), the IC50 was above 32000 nM.
`C[C@H](Cn1cnc2c(N)ncnc21)OCP(=O)(O)OCCOCCCCCCCCCCCCCCC#CC(F)(F)F.N` [Compound 33, Ammonium 2-((17,17,17-trifluoroheptadec-15-yn-1-yl)oxy)ethyl (R)-(((1-(6-amino-9h-purin-9-yl)propan-2-yl)oxy)methyl)phosphonate]: in data set [1] (HEK-293T, 48 h), the IC50 stood at 10.6 nM. In data set [2], the “HLM t1/2” value is given as above 120 min and the microsomal CLint at 3 µM was below 5.78 µL/min/mg.
Regarding `CCCCCCCCCCCCCCCOCCCCOP(=O)(O)CO[C@H](C)Cn1cnc2c(N)ncnc21.N` [Compound 19, Ammonium 4-pentadecoxybutoxy-[[(1R)-2-(6-aminopurin-9-yl)-1-methyl-ethoxy]methyl]phosphinate], the IC50 in data set [1] (HEK-293T, 48 h) was 30 nM. Also, in data set [2], the “HLM t1/2” value was 48 min and the microsomal CLint at 3 µM was found to be 14.4 µL/min/mg.
As for `C[C@H](Cn1cnc2c(N)ncnc21)OCP(=O)(O)OCCOCCCCCCCCCCCCCCCC(F)(F)F.N` [Compound 36, Ammonium 2-((16,16,16-trifluorohexadecyl)oxy)ethyl (R)-(((1-(6-amino-9H-purin-9-yl)propan-2-yl)oxy)methyl)phosphonate], the IC50 in data set [1] (HEK-293T, 48 h) amounted to 8.8 nM. For the same compound, in data set [2], the “HLM t1/2” value is listed as above 120 min and the microsomal CLint at 3 µM is below 5.78 µL/min/mg.
With `C[C@H](Cn1cnc2c(N)ncnc21)OCP(=O)(O)OCCOCCCCCCCCCCCCc1ccc(S(F)(F)(F)(F)F)cc1.N` [Compound 42, Ammonium [(1R)-2-(6-aminopurin-9-yl)-1-methyl-ethoxy]methyl-[2-[12-[4-(pentafluorosulfanyl)phenyl]dodecoxy]ethoxy]phosphinate], in data set [1] (HEK-293T, 48 h), the IC50 was 25.4 nM. In data set [2], the “HLM t1/2” value is listed as above 120 min and the microsomal CLint at 3 µM was below 5.78 µL/min/mg.
Take `COCCOCCOCCOCCOP(=O)(O)CO[C@H](C)Cn1cnc2c(N)ncnc21.N` [Compound 13, Ammonium [(1R)-2-(6-aminopurin-9-yl)-1-methyl-ethoxy]methyl-[2-[2-[2-(2-methoxyethoxy)ethoxy]ethoxy]ethoxy]phosphinate]: the IC50 in data set [1] (HEK-293T, 48 h) was found to be 26700 nM; in data set [1] it was 23400 nM. This compound also gave a CC50 at 48 h in data set [6] above 100 µM. For the same compound, the “aqueous solubility (in words)” value in data set [7] is reported as “observationally increased aqueous solubility”.
Regarding `COCCOCCOP(=O)(O)CO[C@H](C)Cn1cnc2c(N)ncnc21.N` [Compound 14, Ammonium [(1R)-2-(6-aminopurin-9-yl)-1-methyl-ethoxy]methyl-[2-(2-methoxyethoxy)ethoxy]phosphinate], the IC50 was 21400 nM in data set [1] (HEK-293T, 48 h) and 19400 nM in data set [1]. For the same compound, in data set [6], the CC50 at 48 h was above 100 µM. Besides, the “aqueous solubility (in words)” value in data set [7] was “observationally increased aqueous solubility”.
As to `CCCCCCCCOCCCCCOCCCCCOP(=O)(O)CO[C@H](C)Cn1cnc2c(N)ncnc21.N` [Compound 11, Ammonium 5-(5-octoxypentoxy)pentoxy-[[(1R)-2-(6-aminopurin-9-yl)-1-methyl-ethoxy]methyl]phosphinate], in data set [1], the “antiviral activity (in words)” value is “low μM range” and the “decay of antiviral activity with inclusion of the second oxygen atom” value is on record as 78 fold. Further, the IC50 in data set [1] (HEK-293T, 48 h) was 4050 nM. In data set [2], the “HLM stability (in words)” value is listed as “less stable in HLM relative to TXL”, the “HLM t1/2” value turned out to be 12 min, the microsomal CLint at 3 µM was found to be 58.6 µL/min/mg and the half-life at 3 µM is 11.8 min.
For the compound `CCCCCCCCCCCCCCCCOCCCOP(=O)(O)CO[C@H](C)Cn1cnc2c(N)ncnc21` [TXL, tenofovir Exalidex, reference compound], the IC50 in data set [1] (HEK-293T, 48 h) came to 18 nM. In data set [8], this compound showed a microsomal CLint of 16.7 µL/min/mg. Also, in data set [2], the “HLM t1/2” value was determined as 41.6 min and the half-life at 3 µM was 42 min.

For orientation: IC50 means the concentration that inhibits the measured activity by half. In general, microsomal CLint refers to the capacity of the preparation to metabolise the compound, expressed as a volume cleared per time. Low values mean slow turnover, high ones rapid turnover. By half-life is commonly meant the time in which the quantity being followed falls by half. As usually defined, the CC50 is the concentration that lowers cell viability or growth by half.
